Source: patent publication US8742156B2 (priority 2010, dated 2014)
Where a name gives a salt, the structure may show the parent alone. Read-outs that look alike come from different tables or passages of the source.

What was measured:
[1] = system: MDCK cells; assay: Cell Viability Test (MTT); format: cell-based, canine; details: 50 uM, 72 hours
Procedure: This compound was obtained from the National Cancer Institute, USA. Cell Viability Test: MDCK cells were seeded at 2×10^6/ml in a 96-well plate for 16-24 hours. Compound 58 (50 uM) was added to the cells. DMSO was added to the cells as a control. Cells were incubated at 37° C. and 5% CO2 for 72 hours, and then Thiazolyl Blue Tetrazolium Bromide (MTT) was added to a final concentration of 0.1 mg/ml. After two hours, the culture supernatant was removed and each well was replenished with isopropanol. The MTT metabolic product, formazan, was dissolved in isopropanol for five minutes with shaking. The optical densities of formazan and background were measured at 560 nm and 670 nm, respectively.

[2] = system: H1N1 virus (A/HK/54/98 (Tamiflu-sensitive strain)); assay: Viral infection of MDCK cells, TCID50 viral titer, H1N1 (Tamiflu-sensitive); format: cell-based, Human influenza H1N1 virus; details: for TCID50/ml H1N1 virus: m.o.i of 2, supernatant 48-hour post-infection; for viral titers of Tamiflu-sensitive (Tami-S) H1N1 virus decreased (fold): FIG. 1, multiplicity of infection of 0.2, 48-hour post-infection
[3] = system: H9N2 (A/Quail/HK/G1/97); format: cell-based, influenza H9N2 virus; details: for TCID50/ml H9N2 virus: m.o.i of 2, supernatant 48-hour post-infection
[4] = system: H3N2 (A/H3N2/1174/99); assay: Viral infection of MDCK cells, TCID50 viral titer, H3N2; format: cell-based, influenza H3N2 virus; details: for TCID50/ml H3N2 virus: m.o.i of 2, supernatant 48-hour post-infection

Row | Compound | cytotoxicity in MDCK cells compared with DMSO [1] | Cytotoxicity index ([1]; MDCK cells, MTT, relative to DMSO (1.0)) | TCID50/ml H1N1 virus ([2]; 10 μM) | TCID50/ml H1N1 virus ([2]; 20 μM) | TCID50/ml H1N1 virus ([2]; 50 μM) | inhibitory effects against Tami-S H1N1 virus ([2]; FIG. 1, multiplicity of infection of 0.2) | viral titers of Tamiflu-sensitive (Tami-S) H1N1 virus decreased (fold) [2] | inhibition of replication of H1N1 virus ([2]; TCID50 results, Table 1A) | TCID50/ml H9N2 virus ([3]; 10 μM) | TCID50/ml H9N2 virus ([3]; 20 μM) | TCID50/ml H9N2 virus ([3]; 50 μM) | inhibition of replication of H9N2 virus ([3]; TCID50 results, Table 1A) | TCID50/ml H3N2 virus ([4]; 10 μM) | TCID50/ml H3N2 virus ([4]; 20 μM) | TCID50/ml H3N2 virus ([4]; 50 μM) | inhibition of replication of H3N2 virus ([4]; TCID50 results, Table 1A) | TCID50/ml H1N1 virus ([2]; 100 μM) | virus level suppressed (fold) ([2]; H1N1 tamiflu-sensitive, Table 1B (100 μM))
1 | N=C(Nc1ccccc1)SCCCSC(=N)Nc1ccccc1 [Compound 58, Carbamimidothioic acid, phenyl-, 1,3-propanediyl ester, dihydrobromide] | does not display cytotoxicity | 0.916 | 2.90 × 10^4 TCID50/ml | 1.82 × 10^4 TCID50/ml | 4.53 × 10^2 TCID50/ml | potent inhibitory effects | 5 fold | inhibits the replication | 1.14 × 10^3 TCID50/ml | 4.16 × 10^2 TCID50/ml | 1.90 × 10^2 TCID50/ml | inhibits the replication | 4.61 × 10^4 TCID50/ml | 1.72 × 10^4 TCID50/ml | 7.24 × 10^3 TCID50/ml | inhibits the replication |  | 
2 | O=C(Nc1ccc(Nc2ccncc2)cc1)c1ccc(Nc2ccnc3ccccc23)cc1[N+](=O)[O-] [Compound 73, 2-nitro-N-[4-(pyridin-4-ylamino)phenyl]-4-(quinolin-4-ylamino)benzamide] |  |  |  |  |  |  |  |  |  |  |  |  |  |  |  |  | 2.28 × 10^3 TCID50/ml | around 10 fold
3 | CCOC(=O)C1=C[C@@H](OC(CC)CC)[C@H](NC(C)=O)[C@@H](N)C1 [Tamiflu, oseltamivir, reference compound] |  |  |  |  | 1.45 × 10^4 TCID50/ml |  | 8 fold |  |  |  | 9.00 × 10^1 TCID50/ml |  |  |  | 7.24 × 10^3 TCID50/ml |  | 1.52 × 10^3 TCID50/ml | 
